# Experimental data as given in article PMC7968037 (RSC Advances, 2021).
# System: not listed separately
# Experiment: in vitro
# Details: human, Cytotoxicity [log(EC50 [μM]) ± SEM], cellular necrosis, MCF-7, 72 h exposure, 0.32–320 μM; values are logarithms
row,SMILES,EC50 [µM]
1,"C=C(C[C@H](N)C(=O)O)C(=O)Nc1ccccc1 [Compound 3, (S)-2-Amino-4-(phenylcarbamoyl)pent-4-enoic acid]",2.04
2,"C=C(C[C@H](N)C(=O)O)C(N)=O [Compound 1, (S)-2-Amino-4-carbamoylpent-4-enoic acid]",2.95
3,"C=C(C[C@H](N)C(=O)O)C(=O)Nc1ccc(Cl)cc1 [Compound 10, (S)-2-Amino-4-((4-chlorophenyl)carbamoyl)pent-4-enoic acid]",93.3
4,"C=C(C[C@H](N)C(=O)O)C(=O)N1CCCCC1 [Compound 8, (S)-2-Amino-4-(piperidine-1-carbonyl)pent-4-enoic acid]",200
5,"C=C(C[C@H](N)C(=O)O)C(=O)NC1CC1 [Compound 7, (S)-2-Amino-4-(cyclopropylcarbamoyl)pent-4-enoic acid]",> 316

# System: not listed separately
# Experiment: in vitro
# Details: human, Cytotoxicity [log(EC50 [μM]) ± SEM], cellular necrosis, SK-BR-3, 72 h exposure, 0.32–320 μM; values are logarithms
row,SMILES,EC50 [µM]
1,"C=C(C[C@H](N)C(=O)O)C(=O)Nc1ccccc1 [Compound 3, (S)-2-Amino-4-(phenylcarbamoyl)pent-4-enoic acid]",> 316
2,"CC/C(=C(\c1ccccc1)c1ccc(OCCN(C)C)cc1)c1ccccc1 [Tamoxifen, reference compound]",0.331
3,"C=C(C[C@H](N)C(=O)O)C(N)=O [Compound 1, (S)-2-Amino-4-carbamoylpent-4-enoic acid]",2.04
4,"C=C(C[C@H](N)C(=O)O)C(=O)Nc1ccc(Cl)cc1 [Compound 10, (S)-2-Amino-4-((4-chlorophenyl)carbamoyl)pent-4-enoic acid]",> 316
5,"C=C(C[C@H](N)C(=O)O)C(=O)N1CCCCC1 [Compound 8, (S)-2-Amino-4-(piperidine-1-carbonyl)pent-4-enoic acid]",> 316
6,"C=C(C[C@H](N)C(=O)O)C(=O)NC1CC1 [Compound 7, (S)-2-Amino-4-(cyclopropylcarbamoyl)pent-4-enoic acid]",> 316

# System: benign MCF-10A breast cells
# Experiment: cells
# Type: cell-based
# Details: 24 h, tested 0.32–320 μM, Fig. 4D
row,SMILES,Change of cell growth compared to vehicle-treated cells
1,"C=C(C[C@H](N)C(=O)O)C(N)=O [Compound 1, (S)-2-Amino-4-carbamoylpent-4-enoic acid]",significant increases

# Same assay, conditions: 72 h, tested 0.32–320 μM, Fig. 4D′
row,SMILES,Change of cell growth compared to vehicle-treated cells
1,"C=C(C[C@H](N)C(=O)O)C(=O)Nc1ccccc1 [Compound 3, (S)-2-Amino-4-(phenylcarbamoyl)pent-4-enoic acid]",significant increases
2,"C=C(C[C@H](N)C(=O)O)C(N)=O [Compound 1, (S)-2-Amino-4-carbamoylpent-4-enoic acid]",significant increases
3,"C=C(C[C@H](N)C(=O)O)C(=O)Nc1ccc(Cl)cc1 [Compound 10, (S)-2-Amino-4-((4-chlorophenyl)carbamoyl)pent-4-enoic acid]",significant increases
4,"C=C(C[C@H](N)C(=O)O)C(=O)N1CCCCC1 [Compound 8, (S)-2-Amino-4-(piperidine-1-carbonyl)pent-4-enoic acid]",significant increases
5,"C=C(C[C@H](N)C(=O)O)C(=O)NC1CC1 [Compound 7, (S)-2-Amino-4-(cyclopropylcarbamoyl)pent-4-enoic acid]",significant increases

# Same assay, conditions: Homo sapiens, 24 h, read-out: Growth inhibition [log(IC50 [μM]) ± SEM] (converted)
row,SMILES,IC50 [µM]
1,"C=C(C[C@H](N)C(=O)O)C(=O)Nc1ccccc1 [Compound 3, (S)-2-Amino-4-(phenylcarbamoyl)pent-4-enoic acid]",> 316
2,"C=C(C[C@H](N)C(=O)O)C(N)=O [Compound 1, (S)-2-Amino-4-carbamoylpent-4-enoic acid]",> 316
3,"C=C(C[C@H](N)C(=O)O)C(=O)Nc1ccc(Cl)cc1 [Compound 10, (S)-2-Amino-4-((4-chlorophenyl)carbamoyl)pent-4-enoic acid]",> 316
4,"C=C(C[C@H](N)C(=O)O)C(=O)N1CCCCC1 [Compound 8, (S)-2-Amino-4-(piperidine-1-carbonyl)pent-4-enoic acid]",> 316
5,"C=C(C[C@H](N)C(=O)O)C(=O)NC1CC1 [Compound 7, (S)-2-Amino-4-(cyclopropylcarbamoyl)pent-4-enoic acid]",> 316

# Same assay, conditions: Homo sapiens, 72 h, read-out: Growth inhibition [log(IC50 [μM]) ± SEM] (converted)
row,SMILES,IC50 [µM]
1,"C=C(C[C@H](N)C(=O)O)C(=O)Nc1ccccc1 [Compound 3, (S)-2-Amino-4-(phenylcarbamoyl)pent-4-enoic acid]",> 316
2,"C=C(C[C@H](N)C(=O)O)C(N)=O [Compound 1, (S)-2-Amino-4-carbamoylpent-4-enoic acid]",> 316
3,"C=C(C[C@H](N)C(=O)O)C(=O)Nc1ccc(Cl)cc1 [Compound 10, (S)-2-Amino-4-((4-chlorophenyl)carbamoyl)pent-4-enoic acid]",> 316
4,"C=C(C[C@H](N)C(=O)O)C(=O)N1CCCCC1 [Compound 8, (S)-2-Amino-4-(piperidine-1-carbonyl)pent-4-enoic acid]",> 316
5,"C=C(C[C@H](N)C(=O)O)C(=O)NC1CC1 [Compound 7, (S)-2-Amino-4-(cyclopropylcarbamoyl)pent-4-enoic acid]",> 316

# System: MCF-7 (ER+/PR+/HER2−) breast cancer cells
# Experiment: cells
# Type: cell-based
# Details: Homo sapiens, MCF7, 24 h, read-out: Growth inhibition [log(IC50 [μM]) ± SEM] (converted)
row,SMILES,IC50 [µM]
1,"C=C(C[C@H](N)C(=O)O)C(N)=O [Compound 1, (S)-2-Amino-4-carbamoylpent-4-enoic acid]",> 320
2,"C=C(C[C@H](N)C(=O)O)C(=O)Nc1ccc(Cl)cc1 [Compound 10, (S)-2-Amino-4-((4-chlorophenyl)carbamoyl)pent-4-enoic acid]",> 320
3,"C=C(C[C@H](N)C(=O)O)C(=O)N1CCCCC1 [Compound 8, (S)-2-Amino-4-(piperidine-1-carbonyl)pent-4-enoic acid]",> 320

# Now from value to compound:
row,IC50 [µM],SMILES
1,> 320,"C=C(C[C@H](N)C(=O)O)C(=O)Nc1ccccc1 [Compound 3, (S)-2-Amino-4-(phenylcarbamoyl)pent-4-enoic acid]"
2,229,"C=C(C[C@H](N)C(=O)O)C(=O)NC1CC1 [Compound 7, (S)-2-Amino-4-(cyclopropylcarbamoyl)pent-4-enoic acid]"

# Same assay, conditions: Homo sapiens, MCF7, 72 h, read-out: Growth inhibition [log(IC50 [μM]) ± SEM] (converted)
row,SMILES,IC50 [µM]
1,"C=C(C[C@H](N)C(=O)O)C(N)=O [Compound 1, (S)-2-Amino-4-carbamoylpent-4-enoic acid]",> 320
2,"C=C(C[C@H](N)C(=O)O)C(=O)Nc1ccc(Cl)cc1 [Compound 10, (S)-2-Amino-4-((4-chlorophenyl)carbamoyl)pent-4-enoic acid]",209
3,"C=C(C[C@H](N)C(=O)O)C(=O)N1CCCCC1 [Compound 8, (S)-2-Amino-4-(piperidine-1-carbonyl)pent-4-enoic acid]",> 320

# More lines, now with the values ahead:
row,IC50 [µM],SMILES
1,251,"C=C(C[C@H](N)C(=O)O)C(=O)Nc1ccccc1 [Compound 3, (S)-2-Amino-4-(phenylcarbamoyl)pent-4-enoic acid]"
2,> 320,"C=C(C[C@H](N)C(=O)O)C(=O)NC1CC1 [Compound 7, (S)-2-Amino-4-(cyclopropylcarbamoyl)pent-4-enoic acid]"

# Same assay, conditions: MCF-7, 24 h; tested 0.32–320 μM; Fig. 4A
row,SMILES,Early inhibition of growth compared to vehicle-treated cells
1,"C=C(C[C@H](N)C(=O)O)C(=O)Nc1ccc(Cl)cc1 [Compound 10, (S)-2-Amino-4-((4-chlorophenyl)carbamoyl)pent-4-enoic acid]",exerted early inhibition
2,"C=C(C[C@H](N)C(=O)O)C(=O)NC1CC1 [Compound 7, (S)-2-Amino-4-(cyclopropylcarbamoyl)pent-4-enoic acid]",exerted early inhibition

# System: benign MCF-10A breast cells
# Experiment: not given
# Details: 72 h, tested 0.32–320 μM, p ≤ 0.05, Fig. 5D′
row,SMILES,Concentrations that exerted significant toxicity compared to vehicle [µM]
1,"C=C(C[C@H](N)C(=O)O)C(N)=O [Compound 1, (S)-2-Amino-4-carbamoylpent-4-enoic acid]",3.2
2,"C=C(C[C@H](N)C(=O)O)C(=O)Nc1ccc(Cl)cc1 [Compound 10, (S)-2-Amino-4-((4-chlorophenyl)carbamoyl)pent-4-enoic acid]",100

# System: not listed separately
# Experiment: in vitro
# Details: human, Cytotoxicity [log(EC50 [μM]) ± SEM], cellular necrosis, MCF-10A, 72 h exposure, 0.32–320 μM; values are logarithms
row,SMILES,EC50 [µM]
1,"C=C(C[C@H](N)C(=O)O)C(=O)Nc1ccccc1 [Compound 3, (S)-2-Amino-4-(phenylcarbamoyl)pent-4-enoic acid]",> 316
2,"CC/C(=C(\c1ccccc1)c1ccc(OCCN(C)C)cc1)c1ccccc1 [Tamoxifen, reference compound]",> 316
3,"C=C(C[C@H](N)C(=O)O)C(N)=O [Compound 1, (S)-2-Amino-4-carbamoylpent-4-enoic acid]",> 316
4,"C=C(C[C@H](N)C(=O)O)C(=O)Nc1ccc(Cl)cc1 [Compound 10, (S)-2-Amino-4-((4-chlorophenyl)carbamoyl)pent-4-enoic acid]",> 316
5,"C=C(C[C@H](N)C(=O)O)C(=O)N1CCCCC1 [Compound 8, (S)-2-Amino-4-(piperidine-1-carbonyl)pent-4-enoic acid]",> 316
6,"C=C(C[C@H](N)C(=O)O)C(=O)NC1CC1 [Compound 7, (S)-2-Amino-4-(cyclopropylcarbamoyl)pent-4-enoic acid]",> 316

# System: MDA-MB-231 (triple negative) breast cancer cells
# Experiment: cells
# Type: cell-based
# Details: Homo sapiens, MDA-MB-231, 24 h, read-out: Growth inhibition [log(IC50 [μM]) ± SEM] (converted)
row,SMILES,IC50 [µM]
1,"C=C(C[C@H](N)C(=O)O)C(N)=O [Compound 1, (S)-2-Amino-4-carbamoylpent-4-enoic acid]",141
2,"C=C(C[C@H](N)C(=O)O)C(=O)Nc1ccc(Cl)cc1 [Compound 10, (S)-2-Amino-4-((4-chlorophenyl)carbamoyl)pent-4-enoic acid]",> 320
3,"C=C(C[C@H](N)C(=O)O)C(=O)N1CCCCC1 [Compound 8, (S)-2-Amino-4-(piperidine-1-carbonyl)pent-4-enoic acid]",> 320

# More lines, now with the values ahead:
row,IC50 [µM],SMILES
1,> 320,"C=C(C[C@H](N)C(=O)O)C(=O)Nc1ccccc1 [Compound 3, (S)-2-Amino-4-(phenylcarbamoyl)pent-4-enoic acid]"
2,> 320,"C=C(C[C@H](N)C(=O)O)C(=O)NC1CC1 [Compound 7, (S)-2-Amino-4-(cyclopropylcarbamoyl)pent-4-enoic acid]"

# Same assay, conditions: Homo sapiens, MDA-MB-231, 72 h, read-out: Growth inhibition [log(IC50 [μM]) ± SEM] (converted)
row,SMILES,IC50 [µM]
1,"C=C(C[C@H](N)C(=O)O)C(N)=O [Compound 1, (S)-2-Amino-4-carbamoylpent-4-enoic acid]",> 320
2,"C=C(C[C@H](N)C(=O)O)C(=O)Nc1ccc(Cl)cc1 [Compound 10, (S)-2-Amino-4-((4-chlorophenyl)carbamoyl)pent-4-enoic acid]",> 320
3,"C=C(C[C@H](N)C(=O)O)C(=O)N1CCCCC1 [Compound 8, (S)-2-Amino-4-(piperidine-1-carbonyl)pent-4-enoic acid]",> 320

# Next, values leading:
row,IC50 [µM],SMILES
1,> 320,"C=C(C[C@H](N)C(=O)O)C(=O)Nc1ccccc1 [Compound 3, (S)-2-Amino-4-(phenylcarbamoyl)pent-4-enoic acid]"
2,> 320,"C=C(C[C@H](N)C(=O)O)C(=O)NC1CC1 [Compound 7, (S)-2-Amino-4-(cyclopropylcarbamoyl)pent-4-enoic acid]"

# System: not listed separately
# Experiment: in vitro
# Details: human, Cytotoxicity [log(EC50 [μM]) ± SEM], cellular necrosis, MDA-MB-231, 72 h exposure, 0.32–320 μM; values are logarithms
row,SMILES,EC50 [µM]
1,"C=C(C[C@H](N)C(=O)O)C(=O)Nc1ccccc1 [Compound 3, (S)-2-Amino-4-(phenylcarbamoyl)pent-4-enoic acid]",> 316
2,"CC/C(=C(\c1ccccc1)c1ccc(OCCN(C)C)cc1)c1ccccc1 [Tamoxifen, reference compound]",30.9
3,"C=C(C[C@H](N)C(=O)O)C(N)=O [Compound 1, (S)-2-Amino-4-carbamoylpent-4-enoic acid]",> 316
4,"C=C(C[C@H](N)C(=O)O)C(=O)Nc1ccc(Cl)cc1 [Compound 10, (S)-2-Amino-4-((4-chlorophenyl)carbamoyl)pent-4-enoic acid]",> 316
5,"C=C(C[C@H](N)C(=O)O)C(=O)N1CCCCC1 [Compound 8, (S)-2-Amino-4-(piperidine-1-carbonyl)pent-4-enoic acid]",> 316
6,"C=C(C[C@H](N)C(=O)O)C(=O)NC1CC1 [Compound 7, (S)-2-Amino-4-(cyclopropylcarbamoyl)pent-4-enoic acid]",> 316

# System: SK-BR-3 (ER−/PR−/HER2+) breast cancer cells
# Experiment: cells
# Type: cell-based
# Details: Homo sapiens, SK-BR-3, 24 h, read-out: Growth inhibition [log(IC50 [μM]) ± SEM] (converted)
row,SMILES,IC50 [µM]
1,"C=C(C[C@H](N)C(=O)O)C(N)=O [Compound 1, (S)-2-Amino-4-carbamoylpent-4-enoic acid]",7.94
2,"C=C(C[C@H](N)C(=O)O)C(=O)Nc1ccc(Cl)cc1 [Compound 10, (S)-2-Amino-4-((4-chlorophenyl)carbamoyl)pent-4-enoic acid]",79.4
3,"C=C(C[C@H](N)C(=O)O)C(=O)N1CCCCC1 [Compound 8, (S)-2-Amino-4-(piperidine-1-carbonyl)pent-4-enoic acid]",135

# Further lines, results first:
row,IC50 [µM],SMILES
1,37.2,"C=C(C[C@H](N)C(=O)O)C(=O)Nc1ccccc1 [Compound 3, (S)-2-Amino-4-(phenylcarbamoyl)pent-4-enoic acid]"
2,316,"C=C(C[C@H](N)C(=O)O)C(=O)NC1CC1 [Compound 7, (S)-2-Amino-4-(cyclopropylcarbamoyl)pent-4-enoic acid]"

# Same assay, conditions: Homo sapiens, SK-BR-3, 72 h, read-out: Growth inhibition [log(IC50 [μM]) ± SEM] (converted)
row,SMILES,IC50 [µM]
1,"C=C(C[C@H](N)C(=O)O)C(N)=O [Compound 1, (S)-2-Amino-4-carbamoylpent-4-enoic acid]",11.2
2,"C=C(C[C@H](N)C(=O)O)C(=O)Nc1ccc(Cl)cc1 [Compound 10, (S)-2-Amino-4-((4-chlorophenyl)carbamoyl)pent-4-enoic acid]",3.98
3,"C=C(C[C@H](N)C(=O)O)C(=O)N1CCCCC1 [Compound 8, (S)-2-Amino-4-(piperidine-1-carbonyl)pent-4-enoic acid]",0.617

# Further lines, results first:
row,IC50 [µM],SMILES
1,1.66,"C=C(C[C@H](N)C(=O)O)C(=O)Nc1ccccc1 [Compound 3, (S)-2-Amino-4-(phenylcarbamoyl)pent-4-enoic acid]"
2,0.575,"C=C(C[C@H](N)C(=O)O)C(=O)NC1CC1 [Compound 7, (S)-2-Amino-4-(cyclopropylcarbamoyl)pent-4-enoic acid]"
